Results on 73 compounds are retold here after PubChem BioAssay AID488890 (Southern Research Specialized Biocontainment Screening …, 2010).

The test deals with Mycobacterium tuberculosis non-replicating, growth inhibition. In words: growth inhibition of non-replicating M. tuberculosis (AID 488890).

Results filed as inconclusive are left out. Activity calls are given as the source filed them. The rule behind the calls is not given here.

`C#CCSc1nnc(-c2ccc(O)cc2)o1`: the 50% inhibitory concentration (IC50) (in general, the point on the concentration scale where inhibition reaches its midpoint) is 7.34 µM. Next, `CC(CN1CCOCC1)OC(=O)c1ccc(Br)cc1` (stereo not drawn): 1.51 µM; `CCOC(=O)COc1ccc(C(=O)c2ccccc2)c(O)c1`: 1.24 µM. Turning to `CCCc1ccc(OCc2ccc(C(=O)N/N=C/c3cccnc3)o2)cc1`, the IC50 is 8.42 µM.

Consider `CCOC(=O)COc1ccc(C2CC(C)=NN2c2ccccc2)cc1` (stereo not drawn), for which the concentration for half-maximal inhibition (IC50) is 2.55 µM. To `c1ccc(/N=C2\N=C(Nc3ccccn3)c3ccccc32)nc1` belongs below 0.1 µM; to `O=S1(=O)C=C(Sc2nnc(-c3ccccc3)o2)c2ccccc21`, below 0.1 µM. To `Cc1nn(-c2ccccc2)nc1C(=O)c1c(C)[nH]n(-c2ccccc2)c1=O` belongs 4.19 µM; to `O=C(Nc1ccccc1)c1ccc(Br)o1`, 14 µM (inactive).

In the case of `O=C(Nc1nnc(C2=COCCO2)o1)c1ccc(Cc2ccccc2)cc1`, the IC50 is 30.6 µM (inactive). Next, `O=C1CCC/C(=N/Nc2ccc(Cl)cc2)C1`: 3.72 µM; `COC(=O)c1c(NC(=O)c2ccc([N+](=O)[O-])o2)sc2c1CCN(C(C)C)C2`: 0.15 µM. Next, `Clc1ccc(OCCCNCc2ccccc2)c2ccccc12`: 5.99 µM. To `Cc1ccc(-n2cc(CNCCc3cscn3)c(-c3ccc(F)cc3)n2)cc1` belongs 10.9 µM (inactive); to `COc1cc(Cl)cc(/C=N/NC(N)=O)c1O`, 10.2 µM (inactive). For `CC(C)Cc1nnc(NC(=O)CCS(=O)(=O)c2ccc(Cl)cc2)s1`, the IC50 is 5.37 µM. In the case of `Cc1cc(C)c2nc(/N=C(\N)NC(=O)Nc3ccccc3)nc(C)c2c1`, the IC50 was 13.3 µM (inactive). Turning to `CCC(C)(C)c1ccc(OCC(=O)Nc2ccncc2)cc1`, the IC50 was 4.38 µM. Next, `CCCCN(CC)CCNC(=O)c1cc2c(-c3ccc(Cl)cc3)nn(C)c2s1`: 8.57 µM; `CN1C(=O)N(C)c2ccc(C=O)c3cccc1c23`: 3.65 µM. To `O=C(Nc1ccccc1F)c1ccc(Br)o1` belongs 13.4 µM (inactive); to `CC1(C(=O)OCC(=O)Nc2nnc(-c3ccccc3)o2)CC1(Cl)Cl` (stereo not drawn), 3.19 µM; to `Cc1cccc(NCCC(=O)c2ccc([N+](=O)[O-])cc2)c1C`, 3.58 µM. To `O=C(COc1c(Br)cc(Br)c2cccnc12)N1CCCCC1` belongs 9.93 µM; to `CCOc1cccc2cc(C(=O)Nc3nccs3)c(=O)oc12`, 2.26 µM; to `CCCCOC(=O)c1ccc(OC(=O)c2cccnc2)cc1`, 13.4 µM (inactive). Turning to `CCCN(Cc1nnc(-c2ccccc2Cl)o1)C(=O)c1cc([N+](=O)[O-])cc([N+](=O)[O-])c1`, the half-maximal inhibitory concentration (IC50) was 5.83 µM. To `CC(C)c1ccc(N2C(=O)CC(Sc3ncn[nH]3)C2=O)cc1` (stereo not drawn) belongs 11.2 µM (inactive). Next, `CC1(C)CC(=O)C2=C(C1)OC(N)=C(C#N)C2C#Cc1ccccc1` (stereo not drawn): 4.07 µM; `O=C1CCC(=O)N1CNc1ccc(Oc2ccccc2)cc1`: 2.02 µM. Next, `Cc1nc(C)c(/C(O)=C/c2nc3ccccc3oc2=O)s1`: 1.07 µM.

As for `O=C(CCSc1ccc(Cl)cc1)Nc1cccnc1`, the IC50 is > 50 µM (inactive).

Regarding `Cc1nc(/N=C(\N)NC(=O)NC2CCCCC2)nc2ccccc12`, the IC50 was 10.3 µM (inactive). Next, `CCCn1nnc(NC(=O)COc2ccc(CC)cc2)n1`: 17.9 µM (inactive); `O=C(Nc1nc2ccccc2[nH]1)c1cccc(Cl)c1`: 9.06 µM; `COc1ccc(-c2nc3ccc(C)cc3c(=O)o2)cc1OC`: 2.95 µM.

On to `Cc1ccc(S(=O)(=O)Nc2cccc3ncccc23)s1`, for which the IC50 is 5.34 µM.

On to `COc1cccc(OCCNC(=O)c2cc([N+](=O)[O-])cc([N+](=O)[O-])c2)c1`, for which the IC50 was 0.49 µM. Next, `COC(=O)c1cc(-c2ccc(OC)cc2)on1`: 1.55 µM; `Cc1cccc(NC(=O)c2ccc([N+](=O)[O-])s2)n1`: 0.52 µM. For `CC(C)c1nnc(NC(=O)c2cc3cc(Br)ccc3oc2=O)s1`, the IC50 is 4.33 µM. To `O=C(Nc1nnc(-c2cc(Cl)ccc2Cl)o1)C1=COCCO1` belongs 22 µM (inactive); to `O=C(OCC(=O)N1CCCc2ccccc21)c1ccc(S(=O)(=O)C(F)F)cc1`, 20.5 µM (inactive); to `Cc1nnc(N/N=C/c2ccc(Br)cc2)n1N`, 1.29 µM.

In the case of `CC(C)[C@H](NC(=O)c1ccc(Br)cc1)C(=O)NC1CCCCC1`, the half-inhibitory concentration (IC50) is 1.37 µM. Turning to `CCOC(=O)c1ccc(N=C(CC)c2c(O)n(C)c(=O)n(C)c2=O)cc1`, the IC50 is 8.28 µM. In the case of `O=C(NNC(=O)C12CC3CC(CC(C3)C1)C2)c1cnccn1`, the IC50 was 32.2 µM (inactive).

With `Cc1cc(NCCCn2ccnc2)n2ncc(-c3ccc(Cl)cc3)c2n1`, the IC50 was 13.1 µM (inactive). To `O=C(Nc1ccccc1F)c1ccc(CSc2ccccc2)o1` belongs 4.4 µM; to `C/C(=N\NC(=O)c1ccncc1)c1cc2ccccc2oc1=O`, 0.43 µM; to `CC1=CC(=O)NP(=O)(Oc2ccc3ccccc3c2)N1` (stereo not drawn), 7.95 µM.

With `O=C(NC12CC3CC(CC(C3)C1)C2)c1ccc([N+](=O)[O-])o1`, the IC50 is 5.44 µM.

For the compound `C/C(=N/Nc1ccnc2cc(Cl)ccc12)c1ccc(N)cc1`, the IC50 is 21.6 µM (inactive).

In the case of `O=C(c1ccc([N+](=O)[O-])o1)N1CCc2ccccc2C1`, the IC50 was 5.15 µM. Next, `N#CC(C#N)=c1ccc2c(c1)NC1(CCCCC1)N=2`: 5.71 µM; `Cc1cc(Br)ccc1OCC(=O)NNC(=O)c1cnccn1`: 6.09 µM.

`Nc1nnc(Sc2ncccc2[N+](=O)[O-])s1`: the IC50 is 17 µM (inactive). As to `O=C(CCN1CCC(c2cccs2)=N1)c1cccs1`, the IC50 is 4.15 µM. To `O=C(Nc1nnc(-c2ccccc2Cl)o1)c1ccco1` belongs 6.7 µM.

In the case of `CCOC(=O)NC(=O)COC(=O)CCCSc1nc2ccccc2s1`, the IC50 was 10 µM (inactive). Turning to `O=Cc1ccnc(-c2ccc(OC(=O)c3ccco3)cc2)n1`, the IC50 was 18.2 µM (inactive). To `C#CCOc1coc(COC(=O)c2ccccc2)cc1=O` belongs 48.5 µM (inactive). Next, `O=C(Nc1cccc2ccccc12)c1ccc([N+](=O)[O-])o1`: 2.11 µM; `CCCCCCOC(=O)C(C#N)c1nc2ccccc2nc1N1CCN(CC)CC1` (stereo not drawn): 13.9 µM (inactive); `CCOc1cc(-c2nnc(NC(=O)c3ccco3)o2)cc(OCC)c1OCC`: 21.6 µM (inactive). Next, `Cc1ccc2c(c1)c1c3n2CCN=C3CCC1`: 15.2 µM (inactive); `CSC1=N/C(=C\c2ccc(Br)o2)C(=O)S1`: 28.7 µM (inactive); `Cc1cccc(/C=C/c2onc(C)c2[N+](=O)[O-])n1`: 15 µM (inactive). `CCCCCCn1c(=O)c(C(=O)Nc2cnccn2)c(O)c2ccccc21`: the concentration for half-maximal inhibition (IC50) was 2.4 µM.

For `CCCCCCCC(=O)N/N=C(\C)c1ccc(O)cc1O`, the half-inhibitory concentration (IC50) is 1.57 µM.

Regarding `CS/C(Nc1cc(Cl)ccc1Cl)=C(/C#N)C(=O)c1ccco1`, the IC50 is 1.5 µM. Next, `Cc1oc(=O)c(NC(=O)c2ccccc2)cc1C(=O)c1ccccc1`: 5.33 µM; `COc1cccc(COC(=O)c2sc3nc4n(c(=O)c3c2C)CCC4)c1OC`: 2.48 µM.
